Consider 13 molecules from ChEMBL document CHEMBL4706574, “Preparation, characterization, antioxidant evaluation of new curcumin derivatives and effects of forming HSA-bound nanoparticles on the stability and activity” (Eur J Med Chem, 2020).

Calls of active or inactive are those of the source. The rule behind the calls is not given here.

Data set [1] deals with PC-12. In words: Cytoprotective activity against H2O2-induced cell death in […] assessed as cell viability at 30 to 100 uM incubated for 0.5 hrs followed by H2O2 stimulation and measured after 2 hrs by MTT assay. The format is functional, cell-based. The following applies: dose 30-100 µM, time 2.5 hrs. A general note: Tetrazolium dyes change colour on reduction, which living cells bring about.

The subject of data set [2] is PC-12. In words: Cytoprotective activity against H2O2-induced cell death in […] assessed as cell viability at 10 uM incubated for 0.5 hrs followed by H2O2 stimulation and measured after 2 hrs by MTT assay. The format is functional, cell-based. As to conditions: time 2.5 hrs.
The nature of data set [3]: Cytoprotective activity against H2O2-induced cell death in […] assessed as cell viability at 30 uM incubated for 0.5 hrs followed by H2O2 stimulation and measured after 2 hrs by MTT assay relative to control. The format is functional. The following applies: Rattus norvegicus, time 2.5 hrs, read-out: Activity.
Data set [4] relates to PC-12. The data set is described as follows: Cytoprotective activity against H2O2-induced cell death in […] assessed as cell viability at 100 uM incubated for 0.5 hrs followed by H2O2 stimulation and measured after 2 hrs by MTT assay. In kind it is functional, cell-based. As to conditions: Rattus norvegicus, time 2.5 hrs.
For data set [5], the system named is PC-12. In words: Cytoprotective activity against H2O2-induced cell death in […] assessed as cell viability at 0.1 uM incubated for 0.5 hrs followed by H2O2 stimulation and measured after 2 hrs by MTT assay. In kind it is functional, cell-based. As to conditions: time 2.5 hrs.
Data set [6] is described as follows: Stability of compound in PBS buffer at pH 7.4 incubated for 48 hrs by UV-vis spectrophotometry. In kind it is physicochemical. As to conditions: pH 7.4, 48 h.
For data set [7], the system named is K562. In words: Antiproliferative activity against human K562 cells assessed as cell viability at 10 uM incubated for 48 hrs by MTT assay (reference value: 100 %). The format is functional. As to conditions: read-out: Activity.
Data set [8] concerns HepG2. The data set is described as follows: Antiproliferative activity against human HepG2 cells assessed as cell viability at 10 uM incubated for 48 hrs by MTT assay (reference value: 100 %). The following applies: read-out: Activity. The format is functional.
Data set [9] has as its system HCT-116. The data set is described as follows: Antiproliferative activity against human HCT-116 cells assessed as cell viability at 10 uM incubated for 48 hrs by MTT assay (reference value: 100 %). The following applies: read-out: Activity. The format is functional.

Consider `C=CCc1cc(/C=C/c2cc(/C=C/c3ccc(O)c(OC)c3)[nH]n2)cc(OC)c1O`, for which the outcome in data set [1] (Rattus norvegicus) was Active.

As for `Oc1ccc(/C=C/c2cc(O)cc(O)c2)cc1`, in [1] (Rattus norvegicus), the result was Active. Moreover, in [2], the result was inactive.

As to `O=C(O)c1cc(O)c(O)c(O)c1`, the outcome in data set [1] was Active. Besides, the outcome in data set [2] was inactive.

With `C=CCc1cc(/C=C/c2cc(/C=C/c3cc(CC=C)c(O)c(OC)c3)[nH]n2)cc(OC)c1O`, in data set [1] (Rattus norvegicus), the outcome was Active.

Take `C=CCc1cc(/C=C/C(=O)/C=C(O)/C=C/c2ccc(O)c(OC)c2)cc(OC)c1O`: the result in [1] (Rattus norvegicus) was Active. The viability at 30 µM in data set [3] came out at 100%. In addition, the result in [4] was inactive.

With `C=CCc1cc(/C=C/C(=O)/C=C(O)/C=C/c2cc(CC=C)c(O)c(OC)c2)cc(OC)c1O`, the result in data set [1] (Rattus norvegicus) and in [5] was Active. In data set [3], the viability at 30 µM turned out to be 100%.

Consider `C=CCc1cc(/C=C/c2cc(/C=C/c3cc(CC=C(C)C)c(O)c(OC)c3)n[nH]2)cc(OC)c1O`, for which, in data set [1] (Rattus norvegicus), the outcome was Active.

In the case of `COc1cc(/C=C/C(O)=C/C(=O)/C=C/c2cc(CC=C(C)C)c(O)c(OC)c2)ccc1O`, in data set [1] (Rattus norvegicus), the result was Active. Moreover, the viability at 30 µM in data set [3] turned out to be 100%. The result in data set [4] was inactive.

For the molecule `C=CCc1cc(/C=C/C(O)=C/C(=O)/C=C/c2cc(CC=C(C)C)c(O)c(OC)c2)cc(OC)c1O`, the result in data set [1] (Rattus norvegicus) and in data set [5] was Active. Besides, the viability at 30 µM in [3] turned out to be 100%.

For the molecule `COc1cc(/C=C/c2cc(/C=C/c3cc(CC=C(C)C)c(O)c(OC)c3)n[nH]2)ccc1O`, the result in data set [1] (Rattus norvegicus) was Active.

`COc1cc(/C=C/C(=O)CC(=O)/C=C/c2ccc(O)c(OC)c2)ccc1O` [CURCUMIN]: in [6], the Stabilty result was “Unstable”. Moreover, the results for the viability at 10 µM in data set [7], in data set [8] and in [9] were 65.4%, 58.8% and 10.3%, respectively. For the same molecule, the result in [1] (Rattus norvegicus) was Active.

On to `COc1cc(/C=C/C(=O)/C=C(O)/C=C/c2cc(CC=C(C)C)c(O)c(OC)c2)cc(CC=C(C)C)c1O`, for which the Stabilty result in data set [6] is on record as “Unstable”. The viability at 10 µM in data set [7] worked out at 64.3%; in [8] it was 64.3%; in data set [9], 61.1%. The outcome in data set [1] (Rattus norvegicus), in data set [5] and in data set [4] was Active. Further, in data set [3], the viability at 30 µM was determined as 100%.

For the molecule `COc1cc(/C=C/c2cc(/C=C/c3cc(CC=C(C)C)c(O)c(OC)c3)[nH]n2)cc(CC=C(C)C)c1O`, in data set [1] (Rattus norvegicus), the outcome was Active. The viability at 30 µM in data set [3] came out at 100%. In addition, in [4], the outcome was inactive.
